The record followed here is patent US10058550B2, “Methods of treating heart failure” (priority 2015, dated 2018).

As usually defined, the pEC50 is −log10 of the EC50, conventionally taken in molar units.

The test deals with human APJ receptor (Homo sapiens (Human), UniProt P35414). Description: biochemical. The conditions noted are these: read-out: Activity hAPJ SPA EC50 IP. Type of test: biochemical. The procedure, abridged:
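Membranes from CHO cells stably expressing cloned human APJ were incubated with WGA SPA beads in 20 mM HEPES pH 7.5, 5 mM MgCl2, 0.1% BSA, 200 mM NaCl and 3 μM GDP. Reaction started with 0.2 nM [35S]GTPγS ± ligands, 90 min at RT. EC50 obtained by non-linear regression as mean of independent experiments.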

SMILES strings stand for the structures. pEC50: −log10 of the molar value.

Sequence of human APJ receptor (P35414 whole entry): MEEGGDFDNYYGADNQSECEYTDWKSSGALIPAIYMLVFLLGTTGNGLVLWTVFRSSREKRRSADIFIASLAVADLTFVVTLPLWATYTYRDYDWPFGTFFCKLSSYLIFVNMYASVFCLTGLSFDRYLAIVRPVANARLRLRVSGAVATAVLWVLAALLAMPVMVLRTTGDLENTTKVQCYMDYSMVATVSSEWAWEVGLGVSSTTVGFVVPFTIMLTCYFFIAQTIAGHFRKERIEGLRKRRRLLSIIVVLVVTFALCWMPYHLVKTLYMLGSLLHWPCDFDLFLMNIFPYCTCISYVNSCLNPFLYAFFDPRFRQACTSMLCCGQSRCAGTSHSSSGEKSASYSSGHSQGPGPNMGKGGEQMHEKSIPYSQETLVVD

As for `COc1ncnc(OC)c1-n1c(NS(=O)(=O)[C@@H](C)[C@H](OC)c2cnc(C)cn2)nnc1-c1ccccn1` [Example 779.0, (1R,2S)-N-(4-(4,6-dimethoxy-5-pyrimidinyl)-5-(2-pyridinyl)-4H-1,2,4-triazol-3-yl)-1-methoxy-1-(5-methyl-2-pyrazinyl)-2-propanesulfonamide], the pEC50 was 7.77. For `COc1cccc(OC)c1-n1c(NS(=O)(=O)[C@@H](C)[C@H](OC)c2cnc(C)cn2)nnc1-c1ccccn1` [Example 780.0, (1R,2S)-N-(4-(2,6-dimethoxyphenyl)-5-(2-pyridinyl)-4H-1,2,4-triazol-3-yl)-1-methoxy-1-(5-methyl-2-pyrazinyl)-2-propanesulfonamide] the value was 8.06; for `Cc1cnc([C@@H](C)[C@H](C)S(=O)(=O)Nc2nnc(-c3cccc(C)n3)n2-c2c(F)cccc2F)nc1` [Example 783.0, (2S,3R)-N-(4-(2,6-difluorophenyl)-5-(6-methyl-2-pyridinyl)-4H-1,2,4-triazol-3-yl)-3-(5-methyl-2-pyrimidinyl)-2-butanesulfonamide], 8.38. Under `COc1cccc(-c2nnc(NS(=O)(=O)[C@@H](C)[C@H](C)c3ncc(C)cn3)n2-c2c(F)cccc2F)n1` [Example 784.0, (2S,3R)-N-(4-(2,6-difluorophenyl)-5-(6-methoxy-2-pyridinyl)-4H-1,2,4-triazol-3-yl)-3-(5-methyl-2-pyrimidinyl)-2-butanesulfonamide] stands 9.40; under `Cc1cnc([C@@H](C)[C@H](C)S(=O)(=O)Nc2nnc(-c3ccccn3)n2-c2c(F)cccc2F)nc1` [Example 785.0, (2S,3R)-N-(4-(2,6-difluorophenyl)-5-(2-pyridinyl)-4H-1,2,4-triazol-3-yl)-3-(5-methyl-2-pyrimidinyl)-2-butanesulfonamide], 8.31. For `COc1cccc(-c2nnc(NS(=O)(=O)[C@@H](C)[C@H](C)c3ncc(Cl)cn3)n2-c2c(F)cccc2F)n1` [Example 786.0, (2S,3R)-3-(5-chloro-2-pyrimidinyl)-N-(4-(2,6-difluorophenyl)-5-(6-methoxy-2-pyridinyl)-4H-1,2,4-triazol-3-yl)-2-butanesulfonamide] the value was 9.80. As to `Cc1cccc(-c2nnc(NS(=O)(=O)[C@@H](C)[C@H](C)c3ncc(Cl)cn3)n2-c2c(F)cccc2F)n1` [Example 788.0, (2S,3R)-3-(5-chloro-2-pyrimidinyl)-N-(4-(2,6-difluorophenyl)-5-(6-methyl-2-pyridinyl)-4H-1,2,4-triazol-3-yl)-2-butanesulfonamide], the pEC50 was 9.08.

With `COc1cccc(-c2nnc(NS(=O)(=O)[C@@H](C)[C@H](C)c3cnc(C)cn3)n2-c2c(F)cccc2F)n1` [Example 789.0, (2S,3R)-N-(4-(2,6-difluorophenyl)-5-(6-methoxy-2-pyridinyl)-4H-1,2,4-triazol-3-yl)-3-(5-methyl-2-pyrazinyl)-2-butanesulfonamide], the pEC50 was 8.72. For `Cc1cnc([C@@H](C)[C@H](C)S(=O)(=O)Nc2nnc(-c3cccc(C)n3)n2-c2c(F)cccc2F)cn1` [Example 790.0, (2S,3R)-N-(4-(2,6-difluorophenyl)-5-(6-methyl-2-pyridinyl)-4H-1,2,4-triazol-3-yl)-3-(5-methyl-2-pyrazinyl)-2-butanesulfonamide] the value was 7.70. Take `CNc1cccc(-c2nnc(NS(=O)(=O)[C@@H](C)[C@H](C)c3ncc(C)cn3)n2-c2c(F)cccc2F)n1` [Example 791.0, (2S,3R)-N-(4-(2,6-difluorophenyl)-5-(6-(methylamino)-2-pyridinyl)-4H-1,2,4-triazol-3-yl)-3-(5-methyl-2-pyrimidinyl)-2-butanesulfonamide]: the pEC50 was 9.20. In the case of `COc1cccc(-c2nnc(NS(=O)(=O)[C@H](C)[C@@H](OC)c3ncc(C)cn3)n2-c2c(F)cccc2F)n1` [Example 792.0, (1S,2R)-N-(4-(2,6-difluorophenyl)-5-(6-methoxy-2-pyridinyl)-4H-1,2,4-triazol-3-yl)-1-methoxy-1-(5-methyl-2-pyrimidinyl)-2-propanesulfonamide], the negative logarithm of the EC50 (pEC50) is 7.29. Regarding `Cc1cnc([C@@H](C)[C@H](C)S(=O)(=O)Nc2nnc(-c3cccnc3)n2-c2c(F)cccc2F)nc1` [Example 793.0, (2S,3R)-N-(4-(2,6-difluorophenyl)-5-(3-pyridinyl)-4H-1,2,4-triazol-3-yl)-3-(5-methyl-2-pyrimidinyl)-2-butanesulfonamide], the pEC50 is 7.82. For `COc1cnc([C@@H](C)[C@H](C)S(=O)(=O)Nc2nnc(-c3cncc(C)c3)n2-c2c(F)cccc2F)cn1` [Example 794.0, (2S,3R)-N-(4-(2,6-difluorophenyl)-5-(5-methyl-3-pyridinyl)-4H-1,2,4-triazol-3-yl)-3-(5-methoxy-2-pyrazinyl)-2-butanesulfonamide] the value was 8.18; for `Cc1cncc(-c2nnc(NS(=O)(=O)[C@@H](C)[C@H](C)c3cnc(C)cn3)n2-c2c(F)cccc2F)c1` [Example 795.0, (2S,3R)-N-(4-(2,6-difluorophenyl)-5-(5-methyl-3-pyridinyl)-4H-1,2,4-triazol-3-yl)-3-(5-methyl-2-pyrazinyl)-2-butanesulfonamide], 7.52; for `Cc1cncc(-c2nnc(NS(=O)(=O)[C@@H](C)[C@H](C)c3ncc(Cl)cn3)n2-c2c(F)cccc2F)c1` [Example 796.0, (2S,3R)-3-(5-chloro-2-pyrimidinyl)-N-(4-(2,6-difluorophenyl)-5-(5-methyl-3-pyridinyl)-4H-1,2,4-triazol-3-yl)-2-butanesulfonamide], 8.96.

On to `COc1ncnc(OC)c1-n1c(NS(=O)(=O)[C@@H](C)[C@H](C)c2cnc(C)cn2)nnc1-c1cccnc1` [Example 806.0, (2S,3R)-N-(4-(4,6-dimethoxy-5-pyrimidinyl)-5-(3-pyridinyl)-4H-1,2,4-triazol-3-yl)-3-(5-methyl-2-pyrazinyl)-2-butanesulfonamide], for which the pEC50 was 7.72. For `C[C@H](c1ccc(Cl)cn1)[C@H](C)S(=O)(=O)Nc1nnc(-c2cccnc2)n1-c1c(O)nc[nH]c1=O` [Example 810.0, (2S,3R)-3-(5-chloro-2-pyridinyl)-N-(4-(4-hydroxy-6-oxo-1,6-dihydro-5-pyrimidinyl)-5-(3-pyridinyl)-4H-1,2,4-triazol-3-yl)-2-butanesulfonamide] the value was 6.11; for `COc1ncnc(OC)c1-n1c(NS(=O)(=O)[C@@H](C)[C@@H](OC(C)C)c2ncc(C)cn2)nnc1-c1cncc(C)c1` [Example 829.0, (1S,2S)-N-(4-(4,6-dimethoxy-5-pyrimidinyl)-5-(5-methyl-3-pyridinyl)-4H-1,2,4-triazol-3-yl)-1-(1-methylethoxy)-1-(5-methyl-2-pyrimidinyl)-2-propanesulfonamide], 8.02. For `COc1cccc(-c2nnc(NS(=O)(=O)[C@@H]3CCCN(c4ncc(Cl)cn4)C3)n2-c2c(OC)ncnc2OC)n1` [Example 831.0, (3R)-1-(5-chloro-2-pyrimidinyl)-N-(4-(4,6-dimethoxy-5-pyrimidinyl)-5-(6-methoxy-2-pyridinyl)-4H-1,2,4-triazol-3-yl)-3-piperidinesulfonamide, (3S)-1-(5-chloro-2-pyrimidinyl)-N-(4-(4,6-dimethoxy-5-pyrimidinyl)-5-(6-methoxy-2-pyridinyl)-4H-1,2,4-triazol-3-yl)-3-piperidinesulfonamide] the value was 9.05; for `COc1cccc(-c2nnc(NS(=O)(=O)CC3CC3)n2-c2c(OC)cccc2OC)n1` [Example 832.0, 1-cyclopropyl-N-(4-(2,6-dimethoxyphenyl)-5-(6-methoxy-2-pyridinyl)-4H-1,2,4-triazol-3-yl)methanesulfonamide], 6.96.

As for `COc1cccc(-c2nnc(NS(=O)(=O)[C@@H](C)[C@H](C)c3ncc(Cl)cn3)n2C2CCOCC2)n1` [Example 835.0, (2S,3R)-3-(5-chloro-2-pyrimidinyl)-N-(5-(6-methoxy-2-pyridinyl)-4-(tetrahydro-2H-pyran-4-yl)-4H-1,2,4-triazol-3-yl)-2-butanesulfonamide], the negative-log EC50 (pEC50) is 7.89. For `COc1cccc(-c2nnc(NS(=O)(=O)[C@@H](C)[C@H](OC)c3ncc(Cl)cn3)n2C2CCOCC2)n1` [Example 836.0, (1R,2S)-1-(5-chloro-2-pyrimidinyl)-1-methoxy-N-(5-(6-methoxy-2-pyridinyl)-4-(tetrahydro-2H-pyran-4-yl)-4H-1,2,4-triazol-3-yl)-2-propanesulfonamide] the value was 8.54; for `COc1cccc(-c2nnc(NS(=O)(=O)[C@@H](C)[C@@H](OC(C)C)c3ncc(C)cn3)n2C2CCOCC2)n1` [Example 837.0, (1S,2S)-N-(5-(6-methoxy-2-pyridinyl)-4-(tetrahydro-2H-pyran-4-yl)-4H-1,2,4-triazol-3-yl)-1-(1-methylethoxy)-1-(5-methyl-2-pyrimidinyl)-2-propanesulfonamide], 8.29; for `COc1cccc(-c2nnc(NS(=O)(=O)[C@@H](C)[C@H](C)c3ccc(Cl)cn3)n2C2CCOCC2)n1` [Example 840.0, (2S,3R)-3-(5-chloro-2-pyridinyl)-N-(5-(6-methoxy-2-pyridinyl)-4-(tetrahydro-2H-pyran-4-yl)-4H-1,2,4-triazol-3-yl)-2-butanesulfonamide], 7.89. With `COc1cccc(-c2nnc(NS(=O)(=O)[C@@H](C)[C@H](OC)c3ccc(Cl)cn3)n2C2CCOCC2)n1` [Example 841.0, (1R,2S)-1-(5-chloro-2-pyridinyl)-1-methoxy-N-(5-(6-methoxy-2-pyridinyl)-4-(tetrahydro-2H-pyran-4-yl)-4H-1,2,4-triazol-3-yl)-2-propanesulfonamide], the negative-log EC50 (pEC50) was 8.07. For `COc1cnc([C@@H](C)[C@H](C)S(=O)(=O)Nc2nnc(-c3cccc(OC)n3)n2C2CCOCC2)nc1` [Example 842.0, (2S,3R)-N-(5-(6-methoxy-2-pyridinyl)-4-(tetrahydro-2H-pyran-4-yl)-4H-1,2,4-triazol-3-yl)-3-(5-methoxy-2-pyrimidinyl)-2-butanesulfonamide] the value was 6.85.
